{
  "source": "paper PMC7269146",
  "about": "“Jingzhaotoxin-X, a gating modifier of Kv4.2 and Kv4.3 potassium channels purified from the venom of the Chinese tarantula Chilobrachys jingzhao” (The Journal of Venomous Animals and Toxins Including …, 2020)",
  "system": "Kv1.2",
  "assay": "microelectrode voltage-clamp, Xenopus laevis oocytes, Kv1.2",
  "assay_type": "cell-based",
  "settings": "10 μM, 300-ms depolarization to +20 mV from -90 mV, pH 7.5, 19-23°C, n = 3",
  "procedure": "Briefly, plasmids were linearized, and transcription was carried out according to the standardized protocol. Afterwards, the capped cRNAs that encoded the related ion channels were prepared. To conduct transcription in vitro, firstly, NotL was utilized to linearize plasmids pCI that contained both Kv1.1 (Accession: NM_010595.3) and Kv2.1 (Accession: AF026005.1), whereas SphI was adopted to linearize plasmid PcDNA3 containing Kv1.2 (Accession: NM_012970.3) gene. […] Thereafter, the linearized plasmids were used as the templates to synthesize cRNAs in vitro using the large-scale T7 mMESSAGE mMACHINE transcription kit (Ambion, USA).\nA mature female X. laevis was placed on the ice for anesthesia, and then the Xenopus laevis oocytes at stage IV-VI were extracted. Subsequently, those extracted oocytes were treated by collagenase (1 mg/mL) contained within the calcium-depleted ND96 solution (containing 96 mM NaCl, 10 mM HEPES, 1 mM MgCl2, and 2 mM KCl) for defolliculation. […]\nFirstly, the effects of JZTX-X on the isoforms of potassium channels (including Kv1.1-1.3, Kv2.1, as well as Kv4.2-4.3) contained within the X. laevis oocytes were investigated through the microelectrode voltage-clamp approach. […] We also determined the effects of JZTX-X on Ito potassium channels in rat DRG neurons; those current amplitudes were inhibited by 54.4±6.8% when 500 nM JZTX-X was applied (Fig. 3K, n = 5).",
  "note": "Where a SMILES comes first, the peptide text is derived from it. Bridges are numbered along the chain shown (N, C = ends).",
  "data": [
    {"smiles": "CC(C)C[C@@H]1NC(=O)[C@H](CCCCN)NC(=O)[C@H](Cc2ccc(O)cc2)NC(=O)[C@@H]2CSSC[C@@H]3NC(=O)[C@H](Cc4ccc(O)cc4)NC(=O)[C@H](Cc4ccccc4)NC(=O)CNC(=O)[C@H](C)NC(=O)[C@H](CSSC[C@H](NC(=O)[C@@H](N)CC(C)C)C(=O)N[C@@H](CO)C(=O)N[C@@H](CCCNC(=N)N)C(=O)N[C@@H](CCC(=O)O)C(=O)NCC(=O)N[C@@H](CCC(=O)O)C(=O)N[C@@H](Cc4ccccc4)C(=O)N2)NC(=O)[C@H](CSSC[C@@H](C(=O)N[C@@H](Cc2ccc(O)cc2)C(=O)N[C@@H](CCCNC(=N)N)C(=O)N[C@@H](CC(N)=O)C(=O)O)NC(=O)[C@H](Cc2c[nH]cn2)NC(=O)[C@H](CC(C)C)NC(=O)[C@H](C(C)C)NC(=O)[C@H](Cc2ccccc2)NC(=O)[C@H](C)NC(=O)[C@H](CCCCN)NC3=O)NC(=O)[C@H](CCCCN)NC(=O)[C@H](CCCNC(=N)N)NC1=O", "note": "[JZTX-X, Jingzhaotoxin-X] (H-LCSREGEFCYKLRKCCAGFYCKAFVLHCYRN-OH; disulfide 2-16, 9-21, 15-28; N-terminus assumed)", "values": [
      {"measurement": "inhibition of Kv1.2 current", "value": "less than 5%"}
    ]}
  ]
}
